The source of these data is patent publication US20170022159A1, “HETEROCYCLIC AMPHOTERIC COMPOUNDS” (Eastman Chemical Company, priority 2014, published 2017).

The conditions of data set [1]: for Percent amphoteric remaining: buffer.
Procedure: The resulting mixture was placed in a 50° C. oven. Samples were taken periodically and analyzed for the amount of (4-lauroyloxy-1-methylpiperidinium-1-yl)acetate remaining by quantitative HPLC.
Data set [2] is described as follows: Foaming Properties of Surface-Active Agents (ASTM 1173-07), foam height. The format is physicochemical. The source says:
The Standard Test Method for Foaming Properties of Surface-Active Agents (ASTM 1173-07) was used to determine the foaming properties of the heterocyclic amphoteric compounds of the formula 1 described herein. This method generates foam under low-agitation conditions and is generally used for moderate- and high-foam surfactants. This test gathers data on initial foam height and foam decay. Foam decay provides information on foam stability.
The apparatus for carrying out this test includes a jacketed column and a pipet. The jacketed column serves as a receiver, while the pipet delivers the surface-active solution. Solutions of each surface-active agent were prepared. The solution of the heterocyclic amphoteric compound to be tested was added to the receiver (50 mL) and to the pipet (200 mL). The pipet was positioned above the receiver and opened. As the solution fell and made contact with the solution in the receiver, foam was generated. When the pipet was empty, the time was noted and an initial foam height was recorded. The foam height was recorded each minute for five minutes. Exact size specifications for the glassware can be found in ASTM 1173-07. The foam height results for each heterocyclic amphoteric compound 1 and representative standards are listed below in Tables 1 (0.1% concentration) and 2 (1% concentration).

Data set [3] in a line: Fluorimetric determination of critical micelle concentration (DPH dye). The format is physicochemical. As for the experimental part: The critical micelle concentration (CMC) was also determined for each compound. The CMC is the concentration of surfactant above which micelles spontaneously form. CMC is an important characteristic of a surfactant. At surfactant concentrations below the CMC, surface tension varies widely with surfactant concentration. At concentrations above the CMC, surface tension remains fairly constant. A lower CMC indicates less surfactant is needed to saturate interfaces and form micelles. Typical CMC values are less than 1 weight percent (10,000 ppm).
The fluorimetric determination of CMC described by Chattopadhyay and London (Analytical Biochemistry, Vol. 139, pp. 408-412 (1984)) was used to obtain the critical micelle concentrations found in Table 3 below. This method employs the fluorescent dye 1,6-diphenyl-1,3,5-hexatriene (DPH) in a solution of the surface-active agent. The analysis is based on differences in fluorescence upon incorporation of the dye into the interior of the micelles. As the solution exceeds CMC, a large increase in fluorescence intensity is observed.

Where [4] appears, read: 1 g/L (0.1 weight %), t = 0 min.
Setting [5] is: 1 g/L (0.1 weight %), t = 1 min.
[6] abbreviates: 1 g/L (0.1 weight %), t = 2 min.
Where [7] appears, read: 1 g/L (0.1 weight %), t = 3 min.
[8] abbreviates: 1 g/L (0.1 weight %), t = 4 min.
Where [9] appears, read: 1 g/L (0.1 weight %), t = 5 min.
The mark [10] stands for this setting: 10 g/L (1.0 weight %), t = 0 min.
Setting [11] is: 10 g/L (1.0 weight %), t = 1 min.
The mark [12] stands for this setting: 10 g/L (1.0 weight %), t = 2 min.
Setting [13] is: 10 g/L (1.0 weight %), t = 3 min.
The mark [14] stands for this setting: 10 g/L (1.0 weight %), t = 4 min.
Where [15] appears, read: 10 g/L (1.0 weight %), t = 5 min.

Read-outs that look alike come from different tables or passages of the source.

As to “3-(cocoyloxypropyldimethylammonio)acetate [Comparative Example 2, reference compound]”, the Percent amphoteric remaining amounted to 100% in data set [1] (0 h, pH 5); 74% in data set [1] (336 h, pH 5); 73% in data set [1] (1344 h, pH 5). For the same compound, in data set [1] (milder conditions (pH 5, 45° C.)), the “Loss of compound (in words)” value was “significant loss”.
In the case of `CCCCCCCCCCCC(=O)OC1CC[N+](C)(CC(=O)[O-])CC1` (centres unmarked) [Example 9, (4-lauroyloxy-1-methylpiperidinium-1-yl)acetate], the “Foam height (cm) at time t (min)” value was determined as 17.0 cm in data set [2] (setting [4]); 17.0 cm in data set [2] (setting [5]); 16.5 cm in data set [2] (setting [6]); 16.5 cm in data set [2] (setting [7]); 16.0 cm in data set [2] (setting [8]); 16.0 cm in data set [2] (setting [9]). Besides, the “Foam height (cm) at time t (min)” value was determined as 16.5 cm in data set [2] (setting [10]); 16.0 cm in data set [2] (setting [11]); 16.0 cm in data set [2] (setting [12]); 15.5 cm in data set [2] (setting [13]); 15.5 cm in data set [2] (setting [14]); 15.5 cm in data set [2] (setting [15]). Also, the Percent amphoteric remaining in data set [1] (0 h, pH 4.5) is recorded as 100%; in data set [1] (336 h, pH 4.5), 98%; in data set [1] (1008 h, pH 4.5), 96%; in data set [1] (1344 h, pH 4.5), 85%. Moreover, the “Loss of compound (in words)” value in data set [1] (extended incubation in pH 4.5 water at 50° C.) was “limited loss”.
`CCCCCCCCCCCC(=O)OCC1CCC[N+](C)(CC(=O)[O-])C1` (centres unmarked) [Example 11, (3-lauroyloxymethyl-1-methylpiperidinium-1-yl)acetate]: the “Foam height (cm) at time t (min)” value in data set [2] (setting [4]) was determined as 18.5 cm; in data set [2] (setting [5]), 17.5 cm; in data set [2] (setting [6]) it was 17.5 cm; in data set [2] (setting [7]), 17.0 cm; in data set [2] (setting [8]), 16.5 cm; in data set [2] (setting [9]), 16.0 cm. Also, the “Foam height (cm) at time t (min)” value in data set [2] (setting [10]) turned out to be 19.0 cm; in data set [2] (setting [11]), 18.0 cm; in data set [2] (setting [12]) it was 18.0 cm; in data set [2] (setting [13]), 17.5 cm; in data set [2] (setting [14]), 17.5 cm; in data set [2] (setting [15]) it was 17.5 cm. Further, the “CMC” value in data set [3] was 0.248 mM. Moreover, the “CMC (ppm)” value in data set [3] was determined as 95.0 ppm.
For the compound `CCCCCCCCCCCCOS(=O)(=O)O.N` [ammonium lauryl sulfate, reference compound], in data set [3], the “CMC” value was 1.38 mM and the “CMC (ppm)” value is 392 ppm.
For `CCCCCCCCCCCCOS(=O)(=O)[O-].[Na+]` [sodium lauryl sulfate, reference compound], in data set [3], the “CMC” value stood at 8.27 mM and the “CMC (ppm)” value is reported as 2386 ppm.
Turning to “(3-cocoyloxymethyl-1-methylpiperidinium-1-yl)acetate [Example 5]”, the “Foam height (cm) at time t (min)” value in data set [2] (setting [4]) is listed as 16.5 cm; in data set [2] (setting [5]), 16.0 cm; in data set [2] (setting [6]) it was 15.5 cm; in data set [2] (setting [7]), 15.5 cm; in data set [2] (setting [8]), 15.0 cm; in data set [2] (setting [9]), 15.0 cm. Besides, the “Foam height (cm) at time t (min)” value in data set [2] (setting [10]) was 18.0 cm; in data set [2] (setting [11]) it was 17.5 cm; in data set [2] (setting [12]), 17.0 cm; in data set [2] (setting [13]), 17.0 cm; in data set [2] (setting [14]), 17.0 cm; in data set [2] (setting [15]), 16.5 cm. Moreover, the “CMC” value in data set [3] is 0.062 mM. In addition, the “CMC (ppm)” value in data set [3] was 23.7 ppm.
Turning to “(4-cocoyloxy-1-methylpiperidinium-1-yl)acetate [Example 3]”, the “Foam height (cm) at time t (min)” value is 16.5 cm in data set [2] (setting [4]); 16.0 cm in data set [2] (setting [5]); 15.5 cm in data set [2] (setting [6]); 15.5 cm in data set [2] (setting [7]); 15.5 cm in data set [2] (setting [8]); 15.5 cm in data set [2] (setting [9]). Besides, the “Foam height (cm) at time t (min)” value in data set [2] (setting [10]) is 18.5 cm; in data set [2] (setting [11]) it was 18.0 cm; in data set [2] (setting [12]), 17.5 cm; in data set [2] (setting [13]), 17.0 cm; in data set [2] (setting [14]) it was 17.0 cm; in data set [2] (setting [15]), 17.0 cm. Also, the “CMC” value in data set [3] is 0.062 mM. Besides, the “CMC (ppm)” value in data set [3] was 22.9 ppm.
Regarding “(4-cocoyloxymethyl-1-methylpiperidinium-1yl)acetate [Example 7]”, the “Foam height (cm) at time t (min)” value in data set [2] (setting [4]) came to 16.0 cm; in data set [2] (setting [5]), 14.5 cm; in data set [2] (setting [6]), 12.5 cm; in data set [2] (setting [7]), 9.0 cm; in data set [2] (setting [8]) it was 6.0 cm; in data set [2] (setting [9]) it was 4.0 cm. The “Foam height (cm) at time t (min)” value in data set [2] (setting [10]) worked out at 18.0 cm; in data set [2] (setting [11]) it was 17.0 cm; in data set [2] (setting [12]) it was 17.0 cm; in data set [2] (setting [13]) it was 17.0 cm; in data set [2] (setting [14]), 16.5 cm; in data set [2] (setting [15]), 16.5 cm. The “CMC” value in data set [3] was determined as 0.050 mM. Besides, the “CMC (ppm)” value in data set [3] was found to be 19.2 ppm.
Turning to “(4-lauramido-1-methylpiperidinium-1-yl)acetate [Example 17]”, in data set [3], the “CMC” value is reported as 1.54 mM and the “CMC (ppm)” value is on record as 566.5 ppm.
As to “cocamidopropyl betaine [reference compound]”, the “Foam height (cm) at time t (min)” value in data set [2] (setting [4]) was 17.0 cm; in data set [2] (setting [5]) it was 16.0 cm; in data set [2] (setting [6]), 16.0 cm; in data set [2] (setting [7]) it was 16.0 cm; in data set [2] (setting [9]), 15.5 cm; in data set [2] (setting [10]), 17.5 cm. Besides, the “Foam height (cm) at time t (min)” value in data set [2] (setting [11]) is recorded as 16.5 cm; in data set [2] (setting [13]), 16.0 cm; in data set [2] (setting [14]) it was 16.0 cm; in data set [2] (setting [15]) it was 16.0 cm. Moreover, the “CMC” value in data set [3] turned out to be 0.069 mM. Besides, in data set [3], the “CMC (ppm)” value came to 24.5 ppm.
